Measured values reported in PMC9416487, “Comprehensive Evaluation of the Quality of Tripterygium Glycosides Tablets Based on Multi-Component Quantification Combined with an In Vitro Biological Assay” (Molecules, 2022).

Columns and labels:
RAW 264.7 cells = test: Cytotoxicity against RAW 264.7 cells (CCK-8 method); conditions: for Therapeutic Index (TI, = TC50/IC50) / Cytotoxicity TC50: investigated compounds; for Cytotoxicity TC50: 24 h, CCK-8
Method: Cells were cultured at 37 °C in a humidified air incubator with 5% CO2 in Dulbecco’s modified Eagle’s medium (DMEM; Gibco, Grand Island, NY, USA) supplemented with 10% fetal bovine serum (FBS; Gibco, USA), 100 units/mL penicillin and 100 µg/mL streptomycin (Gibco, USA).
RAW 264.7 cells (5.0 × 10^4 cells/well) were seeded into a 96-well plate. After overnight incubation, various concentrations of TGT or target compound were applied to the cells, which were then incubated for 24 h. The same volume of DMSO was added to the compound-untreated group to account for any effects of DMSO on cell viability. Then, the culture medium was removed, 100 μL DMEM medium plus 10 μL CCK-8 reagent (MCE, Suzhou, China) was added, and the cells were incubated for another 2 h at 37 °C in a 5% CO2 incubator. Absorbance at 450 nm was read using a microplate reader, and cell viability was calculated as the percentage of absorbance of various concentrations versus the control group.

[1] = system: NO production in LPS-induced RAW 264.7 cells; test: Inhibitory effect on NO production in LPS-induced RAW 264.7 cells (Griess reagent); assay type: cell-based; conditions: for IC50: Mus musculus, RAW264.7; for IC50 / NO Inhibitory Effect IC50: investigated compounds, LPS (1 µg/mL)-induced RAW 264.7 cells, 24 h
Method: The culture medium was replaced with DMEM medium containing various concentrations of TGT or target compound, subsequently treated with LPS (1 µg/mL), and then incubated for 24 h. After 50 µL of cultured medium was transferred to a new 96-well plate, 50 µL of Griess reagent was added to each well. The absorbance at 540 nm was determined using a microplate reader (PerkinElmer, Waltham, MA, USA). The concentration of NO in the culture supernatants was calculated by using a standard curve of nitrite, a major stable product of NO, which was generated according to the application instructions for the Griess reagent.

[2] = set-up: method as in PMID 29787994; conditions: reported in the literature ref [20]; cited from earlier work

CC1=C(O)C(=O)C=C2C1=CC=C1[C@@]2(C)CC[C@@]2(C)[C@@H]3C[C@](C)(C(=O)O)CC[C@]3(C)CC[C@]12C [celastrol]
Therapeutic Index (TI, = TC50/IC50) (RAW 264.7 cells): 3.07
Cytotoxicity TC50 (RAW 264.7 cells): 1.72 µM
IC50 [1]: 0.56 µM

C[C@@]1(C(=O)O)CC[C@]2(C)CC[C@]3(C)C4=CC(=O)c5c(cc(O)c(O)c5C=O)[C@]4(C)CC[C@@]3(C)[C@@H]2C1 [demethylzeylasteral]
Therapeutic Index (TI, = TC50/IC50) (RAW 264.7 cells): 7.93
Cytotoxicity TC50 (RAW 264.7 cells): 27.59 µM
IC50 [1]: 3.48 µM

CC(=O)OC[C@]12[C@H](OC(C)=O)[C@H](OC(C)=O)[C@@H]3[C@@H](OC(C)=O)[C@@]14O[C@@]3(C)COC(=O)c1cccnc1C(C)C(C)C(=O)O[C@@H]([C@H](OC(C)=O)[C@@H]2OC(C)=O)[C@]4(C)O (stereo partly shown) [euonymine]
Cytotoxicity TC50 (RAW 264.7 cells): nu (Had no NO inhibitory effect or cytotoxicity with an NO production rate less than 0 or cell viability more than 100% at a concentration of 50 μM)
IC50 [1]: > 50 µM

CC(=O)OCC12C(OC(C)=O)C(OC(C)=O)C3C(O)C14OC3(C)COC(=O)c1cccnc1C(C)C(C)C(=O)OC(C(OC(C)=O)C2OC(C)=O)C4(C)O (stereo not shown) [neoeunymine]
Cytotoxicity TC50 (RAW 264.7 cells): nu (Had no NO inhibitory effect or cytotoxicity with an NO production rate less than 0 or cell viability more than 100% at a concentration of 50 μM)
IC50 [1]: > 50 µM

CC(=O)OCC12C(OC(C)=O)C(OC(C)=O)C3C(OC(C)=O)C14OC3(C)COC(=O)c1cnccc1C(C)C(C)C(=O)OC(C(OC(C)=O)C2OC(C)=O)C4(C)O (stereo not shown) [peritassine A]
Cytotoxicity TC50 (RAW 264.7 cells): nu (Had no NO inhibitory effect or cytotoxicity with an NO production rate less than 0 or cell viability more than 100% at a concentration of 50 μM)
IC50 [1]: > 50 µM

C[C@@]1(O)C[C@@]23CC[C@H]4[C@@]5(CCC[C@]4(C)C(=O)OC5)[C@@H]2CC[C@H]1C3 [tripterifordin]
Cytotoxicity TC50 (RAW 264.7 cells): w ^b (had weak NO inhibitory effect or cytotoxicity with an NO production rate less than 50% or the cell viability more than 50% at a concentration of 50 μM)
IC50 [1]: > 50 µM

CC(C)[C@]12O[C@H]1[C@@H]1O[C@]13[C@]1(O[C@H]1C[C@H]1C4=C(CC[C@@]13C)C(=O)OC4)[C@@H]2O [triptolide]
Therapeutic Index (TI, = TC50/IC50) (RAW 264.7 cells): 1.08
Cytotoxicity TC50 (RAW 264.7 cells): 0.071 µM
IC50 [1]: 0.066 µM

CC(C)c1ccc2c(c1O)CC[C@H]1C3=C(CC[C@]21C)C(=O)OC3 [triptophenolide]
IC50 [1]: 43.1 µM

CC(C)C1=CC(=O)C2=C(CC[C@H]3[C@@](C)(CO)C(=O)CC[C@]23C)C1=O [triptoquinone B]
Therapeutic Index (TI, = TC50/IC50) (RAW 264.7 cells): 0.0031
Cytotoxicity TC50 (RAW 264.7 cells): 0.11 µM
IC50 [1]: 35.6 µM

CC(=O)OC[C@]12[C@H](OC(C)=O)[C@H](OC(C)=O)[C@@H]3[C@@H](OC(C)=O)[C@@]14O[C@@]3(C)COC(=O)c1cccnc1CCC(C)C(=O)O[C@@H]([C@H](OC(=O)c1ccco1)[C@@H]2OC(C)=O)[C@]4(C)O (stereo partly shown) [wilforgine]
Cytotoxicity TC50 (RAW 264.7 cells): w (had weak NO inhibitory effect or cytotoxicity with an NO production rate less than 50% or the cell viability more than 50% at a concentration of 50 μM)
NO Inhibitory Effect IC50 [1]: w (had weak NO inhibitory effect or cytotoxicity with an NO production rate less than 50% or the cell viability more than 50% at a concentration of 50 μM)

CC(=O)OC[C@]12[C@H](OC(C)=O)[C@H](OC(C)=O)[C@@H]3[C@@H](OC(C)=O)[C@@]14O[C@@]3(C)COC(=O)c1cccnc1CCC(C)C(=O)O[C@@H]([C@H](OC(=O)c1ccccc1)[C@@H]2OC(C)=O)[C@]4(C)O (stereo partly shown) [wilforine]
Cytotoxicity TC50 (RAW 264.7 cells): w (had weak NO inhibitory effect or cytotoxicity with an NO production rate less than 50% or the cell viability more than 50% at a concentration of 50 μM)
NO Inhibitory Effect IC50 [1]: w (had weak NO inhibitory effect or cytotoxicity with an NO production rate less than 50% or the cell viability more than 50% at a concentration of 50 μM)

CC1(C)[C@@H](O)CC[C@]2(C)[C@H]3CC=C4[C@@H]5C[C@@]6(C)C[C@H](OC6=O)[C@]5(C)CC[C@@]4(C)[C@]3(C)CC[C@@H]12 [wilforlide A]
Cytotoxicity TC50 (RAW 264.7 cells): nu (Had no NO inhibitory effect or cytotoxicity with an NO production rate less than 0 or cell viability more than 100% at a concentration of 50 μM)
cytotoxicity / influence on cell viability, in words (RAW 264.7 cells; up to 50 μM): negligible
oral bioavailability [2]: extremely low
NO inhibitory effect / anti-inflammatory activity, in words ([1]; LPS-induced RAW 264.7 cells, up to 50 μM): negligible anti-inflammatory activity
IC50 [1]: > 50 µM

CC(=O)OCC12C(OC(C)=O)C(OC(C)=O)C3C(OC(C)=O)C14OC3(C)COC(=O)c1cccnc1CCC(C)(OC(=O)c1ccccc1)C(=O)OC(C(OC(C)=O)C2OC(C)=O)C4(C)O (stereo not shown) [wilfornine A]
Cytotoxicity TC50 (RAW 264.7 cells): w (had weak NO inhibitory effect or cytotoxicity with an NO production rate less than 50% or the cell viability more than 50% at a concentration of 50 μM)
NO Inhibitory Effect IC50 [1]: w (had weak NO inhibitory effect or cytotoxicity with an NO production rate less than 50% or the cell viability more than 50% at a concentration of 50 μM)

CC(=O)OC[C@]12[C@H](OC(C)=O)[C@H](OC(C)=O)[C@@H]3[C@@H](OC(C)=O)[C@@]14O[C@@]3(C)COC(=O)c1cccnc1CCC(C)(O)C(=O)O[C@@H]([C@H](OC(=O)c1ccco1)[C@@H]2OC(C)=O)[C@]4(C)O (stereo partly shown) [wilfortrine]
Cytotoxicity TC50 (RAW 264.7 cells): nu (Had no NO inhibitory effect or cytotoxicity with an NO production rate less than 0 or cell viability more than 100% at a concentration of 50 μM)
IC50 [1]: > 50 µM
